From US8058306B2, “Phenyl pyrrole aminoguanidine derivatives” (Action Pharma A/S, priority 2006, dated 2011)
Several values for one entry are separate records, joined by “and”; a condition that tells them apart may be missing. Equal entries are not always repeated. Entries after “also recorded” stand apart in the source; their conditions may differ. Where two headings read alike, the source gives them in different places.

Experiment: Plasma kinetics in rat following intravenous and oral administration;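 on AUC0-∞: parameter is AUC from zero to infinity in ng·h/mL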
Assay type: in vivo, Sprague Dawley rats
Description: This study determined the intravenous pharmacokinetics and oral bioavailability of compound 1 of the invention (see FIG. 1A, structure no. 1), compound 2 of the invention (see FIG. 1D, structure no. 19) and compound 3 of the invention (see FIG. 1I, structure no. 53) following administration to Sprague Dawley rats at a dose level of 10 mg/kg.
Six groups of 3 male rats received either a single intravenous or single oral administration of compound 1, 2 or 3 of the invention at a dose level of 10 mg/kg. Blood samples were obtained at various times after dosing. Plasma samples were analysed for unchanged test item using a suitable LC-MS/MS method. Pharmacokinetic parameters were estimated from individual plasma concentrations.
Eighteen male rats each received either a single intravenous or a single oral administration of either compound 1, 2 or 3 at a dose level of 10 mg/kg. The formulation was orally administered to each animal by gastric gavage and intravenously administered to each animal via a tail vein. The dose was administered at a dose volume of 5 mL/kg. The formulations were administered to each animal according to the details in the following table:
Blood samples (ca 0.3 mL) were removed from the femoral vein of each animal into tubes containing lithium heparin as anticoagulant.
Blood samples were collected from 3 rats at the following times after dose administration: • 3, 6, 15, 45 min and 1.5, 2.5, 4, 6, 8, 24 h post dose. Oral Administration
Blood samples were collected from 3 rats at the following times after dose administration: • 5, 15, 45 min and 1.5, 2.5, 4, 6, 8, 24 h post dose. Processing of Blood Samples
Pharmacokinetic parameters of compound 1, 2 and 3 were derived by non-compartmental analysis using WinNonLin Pro version 5.0.1 (Pharsight 2005). The following parameters were derived, where appropriate, from the individual plasma concentration versus time profiles:
• F % The absolute oral bioavailability calculated as [AUC0-t (oral)*Dose(iv)/AUC0-t (iv)*Dose (oral)]*100 based on mean values derived after oral and intravenous administration Consideration was given to the estimation of λz and corresponding t1/2 values. Three or more points are required within the terminal phase for λz and t1/2 to be estimated. The following additional variables were tabulated to aid identification of potentially unreliable estimates of t1/2 and AUC:
Pharmacokinetic parameters were reported as geometric mean except Tmax which was reported as the median. Geometric coefficient of variation was calculated as: […]
Actual sampling times were used for all calculations of pharmacokinetic parameters. Plasma concentrations that were below the limit of quantification were taken as zero for the pharmacokinetic analysis.

[1] = intravenous 10 mg/kg, male rats, individual animals, acetate, 10 mg/kg
[2] = male, Sprague Dawley, rat, plasma, iv, 10 mg/kg, single intravenous 10 mg/kg, male rats, individual animals, read-out: Sample Concentration in plasma
[3] = male, Sprague Dawley, rat, plasma, iv, 10 mg/kg, single intravenous 10 mg/kg, male rats, mean of 3, read-out: Mean Concentration in plasma

N=C(N)NN=CC=Cc1cccn1-c1ccccc1[N+](=O)[O-] [Compound 2, [1-(2-nitrophenyl)-1H-pyrrol-2-yl-allylideneamino]guanidinium acetate]
bioavailability (Sprague Dawley, rat, plasma, 10 mg/kg oral vs intravenous, male rats, from mean AUC0-t, read-out: Mean absolute oral bioavailability): 3.2%
Between-animal variability in systemic exposure, coefficient of variation (CV) of AUC0-t (intravenous 10 mg/kg, male rats): less than 30%
AUC0-∞ [1]: 1868 ng·h/mL and 2468 ng·h/mL
AUC(0-t) [1]: 1701 ng·h/mL and 2445 ng·h/mL
C0 [1]: 4747 ng/mL and 2637 ng/mL
CL [1]: 90.45 mL/min/kg and 68.88 mL/min/kg
MRT [1]: 2.84 h and 4.84 h
Vss [1]: 15.408 L/kg and 20.008 L/kg
t1/2 [1]: 2.718 h and 3.8896 h
Systemic clearance (in words) (intravenous 10 mg/kg, rats): high
volume of distribution compared with total body water (in words) (intravenous 10 mg/kg, rats, total body water 668 mL/kg, acetate, 10 mg/kg): exceeded the total body water; also recorded: markedly greater than that of the total body water
systemic plasma clearance (CL) compared with hepatic blood flow (in words) (intravenous 10 mg/kg, hepatic blood flow 3312 mL/h/kg): greater than hepatic blood flow
AUC(0-inf) (male, Sprague Dawley, rat, plasma, iv, 10 mg/kg, intravenous 10 mg/kg, male rats, Arithmetic Mean): 2030 ng·h/mL
AUC(0-t) (male, Sprague Dawley, rat, plasma, iv, 10 mg/kg, intravenous 10 mg/kg, male rats, Arithmetic Mean, read-out: AUC0-t): 1880 ng·h/mL
C0 (male, Sprague Dawley, rat, plasma, iv, 10 mg/kg, intravenous 10 mg/kg, male rats, Arithmetic Mean, read-out: C0): 3470 ng/mL
clearance (male, Sprague Dawley, rat, plasma, iv, 10 mg/kg, intravenous 10 mg/kg, male rats, Arithmetic Mean, read-out: CL (converted)): 85.5 mL/min/kg
MRT (male, Sprague Dawley, rat, plasma, iv, 10 mg/kg, intravenous 10 mg/kg, male rats, Arithmetic Mean, read-out: MRT): 3.74 h
Vd (male, Sprague Dawley, rat, plasma, iv, 10 mg/kg, intravenous 10 mg/kg, male rats, Arithmetic Mean, read-out: Vss): 18.7 L/kg
half-life (male, Sprague Dawley, rat, plasma, iv, 10 mg/kg, intravenous 10 mg/kg, male rats, Arithmetic Mean, read-out: t1/2 (converted)): 3.29 h
AUC(0-inf) (male, Sprague Dawley, rat, plasma, iv, 10 mg/kg, intravenous 10 mg/kg, male rats, Geometric mean): 2010 ng·h/mL
AUC(0-t) (male, Sprague Dawley, rat, plasma, iv, 10 mg/kg, intravenous 10 mg/kg, male rats, Geometric mean, read-out: AUC0-t): 1840 ng·h/mL
C0 (male, Sprague Dawley, rat, plasma, iv, 10 mg/kg, intravenous 10 mg/kg, male rats, Geometric mean, read-out: C0): 3360 ng/mL
clearance (male, Sprague Dawley, rat, plasma, iv, 10 mg/kg, intravenous 10 mg/kg, male rats, Geometric mean, read-out: CL (systemic plasma clearance) (converted)): 84.6 mL/min/kg
MRT (male, Sprague Dawley, rat, plasma, iv, 10 mg/kg, intravenous 10 mg/kg, male rats, Geometric mean, read-out: MRT): 3.65 h
Vd (male, Sprague Dawley, rat, plasma, iv, 10 mg/kg, intravenous 10 mg/kg, male rats, Geometric mean, read-out: Vss (mean apparent volume of distribution)): 18.5 L/kg
half-life (male, Sprague Dawley, rat, plasma, iv, 10 mg/kg, intravenous 10 mg/kg, male rats, Geometric mean, read-out: t1/2 (mean apparent terminal half-life) (converted)): 3.25 h
AUC(0-inf) (male, Sprague Dawley, rat, plasma, iv, 10 mg/kg, intravenous 10 mg/kg, male rats, Median): 1870 ng·h/mL
AUC(0-t) (male, Sprague Dawley, rat, plasma, iv, 10 mg/kg, intravenous 10 mg/kg, male rats, Median, read-out: AUC0-t): 1700 ng·h/mL
C0 (male, Sprague Dawley, rat, plasma, iv, 10 mg/kg, intravenous 10 mg/kg, male rats, Median, read-out: C0): 3020 ng/mL
clearance (male, Sprague Dawley, rat, plasma, iv, 10 mg/kg, intravenous 10 mg/kg, male rats, Median, read-out: CL (converted)): 90.5 mL/min/kg
MRT (male, Sprague Dawley, rat, plasma, iv, 10 mg/kg, intravenous 10 mg/kg, male rats, Median, read-out: MRT): 3.53 h
Vd (male, Sprague Dawley, rat, plasma, iv, 10 mg/kg, intravenous 10 mg/kg, male rats, Median, read-out: Vss): 20 L/kg
half-life (male, Sprague Dawley, rat, plasma, iv, 10 mg/kg, intravenous 10 mg/kg, male rats, Median, read-out: t1/2 (converted)): 3.25 h
AUC(0-inf) (male, Sprague Dawley, rat, plasma, iv, 10 mg/kg, intravenous 10 mg/kg, male rats, individual animals): 1750 ng·h/mL
AUC(0-t) (male, Sprague Dawley, rat, plasma, iv, 10 mg/kg, intravenous 10 mg/kg, male rats, individual animals, read-out: AUC0-t): 1500 ng·h/mL
C0 (male, Sprague Dawley, rat, plasma, iv, 10 mg/kg, intravenous 10 mg/kg, male rats, individual animals, read-out: C0): 3020 ng/mL
clearance (male, Sprague Dawley, rat, plasma, iv, 10 mg/kg, intravenous 10 mg/kg, male rats, individual animals, read-out: CL (converted)): 97.1 mL/min/kg
MRT (male, Sprague Dawley, rat, plasma, iv, 10 mg/kg, intravenous 10 mg/kg, male rats, individual animals, read-out: MRT): 3.53 h
Vd (male, Sprague Dawley, rat, plasma, iv, 10 mg/kg, intravenous 10 mg/kg, male rats, individual animals, read-out: Vss): 20.6 L/kg
half-life (male, Sprague Dawley, rat, plasma, iv, 10 mg/kg, intravenous 10 mg/kg, male rats, individual animals, read-out: t1/2 (converted)): 3.25 h
concentration at 0.05 h (male, Sprague Dawley, rat, plasma, iv, 10 mg/kg, single intravenous 10 mg/kg, male rats, 0.05 h (3 min), mean of 3, read-out: Mean Concentration in plasma): 2350 ng/mL
concentration at 0.05 h (male, Sprague Dawley, rat, plasma, iv, 10 mg/kg, single intravenous 10 mg/kg, male rats, 0.05 h, individual animals, read-out: Sample Concentration in plasma): 1640 ng/mL
concentration at 0.1 h [2]: 1590 ng/mL
concentration at 0.1 h [3]: 1340 ng/mL
concentration at 0.25 h [2]: 847 ng/mL
concentration at 0.25 h [3]: 724 ng/mL
concentration at 0.75 h [2]: 264 ng/mL
concentration at 0.75 h [3]: 278 ng/mL
concentration at 1.5 h [2]: 250 ng/mL
concentration at 1.5 h [3]: 217 ng/mL
concentration at 2.5 h [2]: 195 ng/mL
concentration at 2.5 h [3]: 191 ng/mL
concentration at 4 h [2]: 122 ng/mL
concentration at 4 h [3]: 132 ng/mL
concentration at 6 h [2]: 83.9 ng/mL
concentration at 6 h [3]: 86 ng/mL
concentration at 8 h (male, Sprague Dawley, rat, plasma, iv, 10 mg/kg, single intravenous 10 mg/kg, male rats, 8 h, mean, read-out: Mean Concentration in plasma): 65.1 ng/mL
